The target of experiment [1] is PI3Kα (Homo sapiens (Human), UniProt P42336). The experiment can be described thus: Biochemical evaluation of activity of PI3Kα (Kinase-Glo luminescence kinase assay). The note with it: 25 μM ATP, 50 μM PIP2, 1 h at room temperature. The gist of the method: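 Inhibition of PI3Kα was measured in vitro with a luciferase-based Kinase-Glo™ luminescence readout in white 384-well plates at room temperature. Compound diluted 25-fold in buffer (50 mM Hepes pH 7.5, 3 mM MgCl2, 100 mM NaCl, 1 mM EGTA, 0.03% CHAPS, 2 mM DTT) was mixed with enzyme, then PIP2/ATP substrate was added. Percent inhibition used enzyme-free and DMSO controls; IC50 was fitted with XLfit.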
Background: Kinase-Glo measures the ATP left after a reaction by luminescence.

In experiment [2] the test system is human lung cancer NCI-H460 subcutaneous xenografts. Nature of the experiment: Xenograft efficacy in nude mice, NCI-H460. The experiment is classed as in vivo. The note with it: for Growth inhibition: NCI-H460 xenograft, 16 days of dosing. How it is done:
(§1) Human lung cancer NCI-H460 cells were collected under aseptic conditions, and the cell density was adjusted to 1×10^6 cells/mL with sterile saline, 0.2 mL of which was implanted into the back of the nude mice. When the tumor grew to a diameter of about 1 cm, it was removed under septic condition and cut into pieces of 1 mm×1 mm which was implanted into the back of the nude mice. When the tumor grew to 100-300 mm^3 after 6 days, the animals were randomly divided into groups and administration was started (marked as Day 1). The test compound was administered orally every day. Body weight was measured twice a week and the length and width of the tumor were measured with a vernier caliper. After 16 days of dosing, the nude mice were sacrificed by cervical dislocation and the tumor issues were exfoliated, weighed and photographed. Finally, the tumor inhibitory rate was calculated. The antitumor efficacy was evaluated by the tumor inhibitory rate. The results were shown in Table 3, Table 4, FIG. 1 and FIG. 2.
(§2) The tumor volume was calculated as follows: Tumor volume=(a×b^2)/2, where a and b represented the length and width of the tumor.
(§3) The percentage of tumor growth inhibition was calculated as follows: Tumor growth inhibition (%)=(1−T/C)×100, where T was the final volume of the tumor in the test compound group and C was the final volume of the tumor in the solvent control group.

Experiment [3] concerns human lung cancer cell NCI-H460. Nature of the experiment: Tumor cell viability by MTT assay. The experiment is classed as cell-based. The conditions noted are these: Homo sapiens, NCI-H460, 96 h. In a few lines:
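NCI-H460 cells exposed to six to nine compound concentrations (DMSO below 0.2%, triplicate wells) for 96 hours at 37° C, 5% CO2. MTT added for 4 hours, formazan dissolved in DMSO and OD read at 570 nm against DMSO-treated controls.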
For orientation: Tetrazolium dyes change colour on reduction, which living cells bring about.

The subject of experiment [4] is human gastric cancer HGC-27 subcutaneous xenografts. Nature of the experiment: Xenograft efficacy in nude mice, HGC-27. The experiment is classed as in vivo. How it is done:
as §1, with “gastric” for “lung”, “HGC-27” for “NCI-H460”, “When the tumor grew to a diameter of about 1 cm, it was removed under septic condition and cut into pieces of 1 mm×1 mm which was implanted into the back of the nude mice.” left out, “0).” for “1).”, “20” for “16”, “rate.” for “rate. The results were shown in Table 3, Table 4, FIG. 1 and FIG. 2.”
as §2, §3
The percentage of tumor regression was calculated by 100×(final tumor volume-initial tumor volume)/initial tumor volume.

One may read the IC50 as the point on the concentration scale where inhibition reaches its midpoint.

PI3Kα, sequence (P42336 whole entry): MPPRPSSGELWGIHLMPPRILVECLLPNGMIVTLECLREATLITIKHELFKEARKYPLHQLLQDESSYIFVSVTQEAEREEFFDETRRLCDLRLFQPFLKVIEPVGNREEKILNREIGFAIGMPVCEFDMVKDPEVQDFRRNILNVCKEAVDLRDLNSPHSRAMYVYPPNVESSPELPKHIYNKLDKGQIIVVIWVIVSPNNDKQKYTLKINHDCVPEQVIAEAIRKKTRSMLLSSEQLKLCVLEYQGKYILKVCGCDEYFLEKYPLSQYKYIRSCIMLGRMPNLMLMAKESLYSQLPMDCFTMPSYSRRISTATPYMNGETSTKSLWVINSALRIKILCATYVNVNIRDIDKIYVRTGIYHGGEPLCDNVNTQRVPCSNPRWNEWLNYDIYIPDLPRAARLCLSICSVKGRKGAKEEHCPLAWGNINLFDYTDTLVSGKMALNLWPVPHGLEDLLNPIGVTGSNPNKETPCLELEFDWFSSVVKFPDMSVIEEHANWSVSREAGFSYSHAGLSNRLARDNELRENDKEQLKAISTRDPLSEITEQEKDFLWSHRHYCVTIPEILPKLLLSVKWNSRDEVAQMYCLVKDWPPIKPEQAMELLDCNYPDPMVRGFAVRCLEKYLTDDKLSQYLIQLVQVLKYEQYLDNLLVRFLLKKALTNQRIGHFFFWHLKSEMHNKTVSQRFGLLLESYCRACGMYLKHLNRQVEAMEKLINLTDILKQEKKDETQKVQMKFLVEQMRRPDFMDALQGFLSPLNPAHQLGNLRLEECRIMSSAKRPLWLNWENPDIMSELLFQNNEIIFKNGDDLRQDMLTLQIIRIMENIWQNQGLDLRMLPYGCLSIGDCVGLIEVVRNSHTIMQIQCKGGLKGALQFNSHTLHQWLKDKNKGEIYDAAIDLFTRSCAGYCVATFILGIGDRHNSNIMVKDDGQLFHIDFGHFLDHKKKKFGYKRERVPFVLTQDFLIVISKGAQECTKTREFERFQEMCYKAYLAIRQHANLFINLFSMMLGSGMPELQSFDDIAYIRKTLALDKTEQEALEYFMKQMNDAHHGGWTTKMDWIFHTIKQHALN
PI3Kα, sequence (P27986 whole entry partner): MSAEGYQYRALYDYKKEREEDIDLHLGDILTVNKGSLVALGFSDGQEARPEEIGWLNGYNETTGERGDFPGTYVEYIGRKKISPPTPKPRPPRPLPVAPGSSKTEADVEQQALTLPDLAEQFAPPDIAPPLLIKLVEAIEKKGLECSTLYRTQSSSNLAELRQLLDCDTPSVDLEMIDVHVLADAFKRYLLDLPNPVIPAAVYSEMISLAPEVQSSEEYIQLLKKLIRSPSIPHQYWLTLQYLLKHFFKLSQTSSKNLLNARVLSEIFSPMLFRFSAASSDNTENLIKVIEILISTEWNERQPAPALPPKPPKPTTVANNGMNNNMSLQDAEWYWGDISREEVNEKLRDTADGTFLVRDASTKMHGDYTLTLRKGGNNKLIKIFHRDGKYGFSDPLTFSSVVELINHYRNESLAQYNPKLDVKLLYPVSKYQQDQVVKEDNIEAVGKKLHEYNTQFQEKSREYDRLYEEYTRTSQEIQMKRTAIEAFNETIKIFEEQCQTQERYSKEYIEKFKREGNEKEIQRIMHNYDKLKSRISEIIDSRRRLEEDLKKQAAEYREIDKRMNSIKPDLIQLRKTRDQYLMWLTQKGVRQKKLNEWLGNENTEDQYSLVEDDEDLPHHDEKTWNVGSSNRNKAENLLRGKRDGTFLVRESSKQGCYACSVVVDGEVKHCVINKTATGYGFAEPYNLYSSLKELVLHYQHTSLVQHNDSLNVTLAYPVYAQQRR

As for `COc1ncc(-c2cc(O[C@@H]3CCOC3)c3nc(N)nc(C)c3c2)cc1NS(=O)(=O)c1ccc(F)cc1F` [Example 9, (R)—N-(5-(2-amino-4-methyl-8-((tetrahydrofuran-3-yl)oxy)quinazolin-6-yl)-2-methoxypyridin-3-yl)-2,4-difluorobenzenesulfonamide], the IC50 in experiment [1] turned out to be 0.86 nM; in experiment [3], 93 nM. Also, the “inhibitory effect against growth of NCI-H460 subcutaneous xenografts (in words)” value in experiment [2] was “significant inhibitory effects”. In addition, the Growth inhibition turned out to be 39.2% in experiment [2] (5 mg/kg/day orally), 56.3% in experiment [2] (10 mg/kg/day orally) and 77.0% in experiment [2] (20 mg/kg/day orally).
For `CNc1nc(C)c2cc(-c3cnc(OC)c(NS(=O)(=O)c4ccc(F)cc4F)c3)cc(O[C@@H]3CCOC3)c2n1` [Example 32, (R)—N-(2-methoxy-5-(4-methyl-2-(methylamino)-8-((tetrahydrofuran-3-yl)oxy)quinazolin-6-yl)pyridin-3-yl)-2,4-difluorobenzenesulfonamide], in experiment [1], inhibition was half-maximal at 0.82 nM (IC50). In addition, the “inhibitory effect on growth of HGC-27 subcutaneous xenografts (in words)” value in experiment [4] is listed as “significant inhibitory effect”. Besides, in experiment [4] (HGC-27 xenograft, 5 mg/kg/day orally, 20 days of dosing), the Growth inhibition amounted to 76.9%. The Regression in experiment [4] (HGC-27 xenograft, 10 mg/kg/day orally, 20 days of dosing) stood at 70.5%.
Regarding `COc1ncc(-c2cc(OC3CCOCC3)c3ncnc(C)c3c2)cc1NS(=O)(=O)c1ccc(F)cc1F` [Example 44, N-(2-methoxy-5-(4-methyl-8-((tetrahydro-2H-pyran-4-yl)oxy)quinazolin-6-yl)pyridin-3-yl)-2,4-difluorobenzenesulfonamide], the 50% inhibitory concentration (IC50) is 0.65 nM in experiment [1] and 29 nM in experiment [3]. Besides, in experiment [2], the “inhibitory effect against growth of NCI-H460 subcutaneous xenografts (in words)” value is “significant inhibitory effects”. The Growth inhibition in experiment [2] (1 mg/kg/day orally) is 60.3%.
Take `COc1ncc(-c2cc(OC3CCC3)c3ncnc(C)c3c2)cc1NS(=O)(=O)c1ccc(F)cc1F` [Example 70, N-(5-(8-cyclobutoxy-4-methylquinazolin-6-yl)-2-methoxypyridin-3-yl)-2,4-difluorobenzenesulfonamide]: the IC50 in experiment [1] is 0.9 nM; in experiment [3], 22 nM.
Regarding `COc1ncc(-c2cc(OC(F)F)c3ncnc(C)c3c2)cc1NS(=O)(=O)c1ccc(F)cc1F` [Example 71, N-(5-(8-(difluoromethoxy)-4-methylquinazolin-6-yl)-2-methoxypyridin-3-yl)-2,4-difluorobenzenesulfonamide], the values for the IC50 in experiment [1] and in experiment [3] were 1.9 nM and 1000 nM, respectively.
As for `COc1ncc(-c2cc(OC)c3ncnc(C)c3c2)cc1NS(=O)(=O)c1ccc(F)cc1F` [Example 72, N-(2-methoxy-5-(8-methoxy-4-methylquinazolin-6-yl)pyridin-3-yl)-2,4-difluorobenzenesulfonamide], the IC50 was determined as 0.7 nM in experiment [1] and 500 nM in experiment [3].
For `Cc1ncnc2c(OC3CCOCC3)cc(-c3cnc(Cl)c(NS(=O)(=O)c4ccc(F)cc4)c3)cc12` [Example 73, N-(2-chloro-5-(4-methyl-8-((tetrahydro-2H-pyran-4-yl)oxy)quinazolin-6-yl)pyridin-3-yl)-4-fluorobenzenesulfonamide] the same measures were 1.3 nM and 740 nM.
For `Cc1ncc(-c2cc(OC3CCOCC3)c3ncnc(C)c3c2)cc1NS(=O)(=O)c1ccc(F)cc1F` [Example 74, N-(2-methyl-5-(4-methyl-8-((tetrahydro-2H-pyran-4-yl)oxy)quinazolin-6-yl)pyridin-3-yl)-2,4-difluorobenzenesulfonamide] the same measures were 1.1 nM and 870 nM.

The record behind these values is patent US11534443B2, “Quinazoline compounds, preparation method, use, and pharmaceutical composition thereof” (INSTITUTE OF MATERIA MEDICA, CHINESE ACADEMY OF MEDICAL …, priority 2016, dated 2022).
